Reference: PMC6328429, “Synthesis of a benzoxazinthione derivative of tanaproget and pharmacological evaluation for PET imaging of PR expression” (EJNMMI Radiopharmacy and Chemistry, 2019)
Where “and” joins values, the source holds several entries; their conditions need not be identical. Equal entries are not always repeated. Entries after “also recorded” stand apart in the source; their conditions may differ. Where two headings read alike, the source gives them in different places.

How the values were obtained:
[1] = Distribution coefficient analysis (LogD7.4), n-octanol/PBS; assay type: physicochemical
Method: Radioligand [^18F]2 (0.03 MBq, 1 μL, in EtOH) was mixed with PBS (500 μL) and n-octanol (500 μL). The sample was vortexed (10 min) followed by centrifugation (1×g, 10 min). Three aliquots (100 μL) from each layer were taken and counts measured using a 2480 WIZARD2 Automatic Gamma Counter (PerkinElmer, UK). Experiment was repeated in triplicate in n = 3 determinations (supporting information, Additional file 1: Table S1). Distribution coefficient (LogD7.4) was calculated as the logarithm of the ratio between CPM of the octanol and buffer phase.

T47D cells = assay: Cell uptake study of radioligand in breast cancer cell lines; assay type: cell-based, human
Method: T47D, MCF-7 and MDA-MB-231 cells (1 × 10^5) were plated into 6-well plates and used for receptor binding assays at 60–80% confluence. Cell medium was removed and cells were washed with cold PBS buffer. [^18F]2 (37 kBq/mL) was added to individual wells and cells were incubated at 37 °C in a humidified atmosphere of 5% CO2 for 60 min. Cells were co-incubated with 0.01–1 μM of cold progesterone for the blocking study. Cells were then washed 3 times with ice-cold PBS and lysed with RIPA buffer. Radioactivity was determined using a gamma spectrometer (Automatic Gamma counter, Wizard 3 Wallac). Radioactivity was normalised to protein content determined using a BCA 96-well plate assay (Thermo Fisher Scientific Inc., USA) and expressed as a percentage of total radioactivity per mg of protein.

[2] = Ex vivo biodistribution in C57BL/6 female mice; conditions: 50 min p.i.
Method: Pubertal female C57BL/6 mice were injected intraperitoneally with 30 IU gonadotropins, 15 IU Follicle-stimulating hormone (FSH) and 15 IU luteinizing hormone (LH) followed by 5 IU […] (hCG) after 48 h (Sigma-Aldrich, Gillingham, UK). After the imaging studies, the ovaries were removed and snap-frozen in liquid nitrogen for later analysis of protein expression by western blot.
[^18F]2 (455 ± 62 kBq) was injected into the tail vail of female C57BL/6 mice. Whilst under anaesthesia the animals were sacrificed and tissues of interest such as, heart, lung, liver, spleen, kidneys, stomach, muscle, bone, ovary, small intestines and large intestines were collected in pre-weighed counting tubes. Radioactivity within tissue samples was counted in a gamma spectrometer (Automatic Gamma Counter, Wizard 3 Wallac), and then weighed to determine the mass of the tissue. CPM for each tissue sample was normalised to the total injected dose of radioactivity to the animal to give %ID (injected dose), and then normalised to the weight of the counted tissue to give the radioactivity uptake of the tissue as %ID/g. Tabulated values shown in Additional file 1: Table S2.

[3] = Dynamic PET/CT imaging in C57BL/6 female mice; assay type: in vivo; conditions: PET images acquired over 50 min
Method: Mice were anaesthetised with 3–5% isoflurane at a flow rate of 1 L/min, and then reduced to 1.5–2% isoflurane for anaesthesia maintenance during imaging. [^18F]2 was injected via the tail vein at the commencement of a dynamic PET scan using a dedicated small animal PET/CT scanner (Sedecal SuperArgus2R, Sedecal, Spain). Images were acquired over a 50 min imaging sequence, followed by CT imaging acquired in 514 projections for anatomic coregistration. PET emission data were corrected for decay and dead time and reconstructed using 3D-OSEM. Data were analysed based on regions of interest (ROI) drawn within the tumours and tissue. Time-activity curves (TAC) were calculated as an average form the region of interest analysis of three mice (Additional file 1: Figure S34). Data was analysed using AMIDE software (Loening and Gambhir, [2003]) and VivoQuant (InVicro, MA, USA) and regions of interest (ROIs) were selected by hand, and the count densities were averaged for each frame to obtain a TAC for each ROI.

[4] = In vitro radioactive metabolite analysis in mouse liver microsomes; assay type: in vitro ADME; conditions: MLM, 60 min, radio-HPLC integration
Method: Radioligand [^18F]2 (3 MBq, ca. 80 μL), mouse liver microsomes (50 μL, 1 mg/mL), NADPH regeneration system A (50 μL), NADPH regeneration system B (10 μL), PBS 0.5 M pH 7.5 (200 μL) and water (ca. 200 μL) were added to a plastic 1.5 mL tube. The mixture was incubated at 37 °C for 60 min and transferred into a plastic centrifuge tube (10 mL). Proteins were precipitated with ice-cold MeOH (2 mL) and the mixture was centrifuged (12,000 g, 3 min) to pellet the precipitate. The supernatant was removed, evaporated to dryness and the residue was suspended in 37% MeCN + 0.1%TFA / 63% Water + 0.1%TFA for RP-HPLC using gradient 3 (supporting information, section 10.3). The experiment was performed in n = 3 determinations. Extraction efficiency of radioactivity from the protein pellet was calculated to be 93.5% ± 1.6 (Additional file 1: Table S3). HPLC data is shown in the supporting information (Additional file 1: Figure S35).

[5] = Stability of formulated radioligand; assay type: physicochemical; conditions: up to 4 h after formulation; 10% (v/v) EtOH/PBS
[6] = PR-induced (PR+, gonadotropin stimulated) mice, mean ± SEM

CC1(C)OC(=S)Nc2ccc(-c3cccnc3[18F])cc21 [[^18F]2]
logD ([1]; pH 7.4, PBS (pH 7.4) / octan-1-ol, three repeats in triplicate, read-out: Distribution coefficient (LogD7.4), mean ± SD): 1.69 ± 0.1
logD ([1]; pH 7.4, single measurements (Run 1-3, a-c), read-out: LogD7.5): 1.67
Uptake of radioligand in cell lines (T47D cells; T47D (PR++) compared to MCF7 (PR+) and MDA-MB-231 (PR-), 60 min, 37 °C): significant accumulation in T47D cells
Uptake in T47D cells on co-incubation with progesterone (blocking) (T47D cells; T47D cells, progesterone 0.01–0.1 μM): decreased in a dose-dependent manner
Bone uptake ratio, gonadotropin-stimulated vs control mice [2]: 2 fold
Biodistribution, blood [2, 6]: 1.30 ± 0.30 %ID/g
Biodistribution, bone [2, 6]: 31.21 ± 5.99 %ID/g
Biodistribution, brain [2, 6]: 0.40 ± 0.09 %ID/g
Biodistribution, heart [2, 6]: 1.47 ± 0.31 %ID/g
Biodistribution, kidney [2, 6]: 3.89 ± 1.26 %ID/g
Biodistribution, large intestine [2, 6]: 13.25 ± 1.70 %ID/g
Biodistribution, liver [2, 6]: 14.48 ± 4.91 %ID/g
Biodistribution, lungs [2, 6]: 1.33 ± 0.28 %ID/g
Biodistribution, muscle [2, 6]: 1.55 ± 0.44 %ID/g
Biodistribution, small intestine [2, 6]: 36.08 ± 1.21 %ID/g
Biodistribution, spleen [2, 6]: 0.15 ± 0.06 %ID/g
Biodistribution, stomach [2, 6]: 3.41 ± 0.26 %ID/g
Biodistribution, urine [2, 6]: 12.93 ± 12.56 %ID/g
Biodistribution, blood ([2]; control (PR-) mice, mean ± SEM): 0.01 ± 0.000 %ID/g
Biodistribution, bone ([2]; control (PR-) mice, mean ± SEM): 15.37 ± 3.47 %ID/g
Biodistribution, brain ([2]; control (PR-) mice, mean ± SEM): 0.41 ± 0.09 %ID/g
Biodistribution, heart ([2]; control (PR-) mice, mean ± SEM): 1.40 ± 0.33 %ID/g
Biodistribution, kidney ([2]; control (PR-) mice, mean ± SEM): 4.02 ± 1.18 %ID/g
Biodistribution, large intestine ([2]; control (PR-) mice, mean ± SEM): 1.30 ± 0.07 %ID/g
Biodistribution, liver ([2]; control (PR-) mice, mean ± SEM): 6.19 ± 1.74 %ID/g
Biodistribution, lungs ([2]; control (PR-) mice, mean ± SEM): 1.28 ± 0.35 %ID/g
Biodistribution, muscle ([2]; control (PR-) mice, mean ± SEM): 0.91 ± 0.19 %ID/g
Biodistribution, ovary ([2]; control (PR-) mice, mean ± SEM): 1.32 ± 0.22 %ID/g
Biodistribution, small intestine ([2]; control (PR-) mice, mean ± SEM): 30.49 ± 3.05 %ID/g
Biodistribution, spleen ([2]; control (PR-) mice, mean ± SEM): 0.99 ± 0.28 %ID/g
Biodistribution, stomach ([2]; control (PR-) mice, mean ± SEM): 0.73 ± 0.17 %ID/g
Biodistribution, urine ([2]; control (PR-) mice, mean ± SEM): 10.94 ± 8.40 %ID/g
Distribution of radioactivity in PET images [3]: Extensive skeletal uptake; also recorded: accumulation of radioactivity in the liver and small intestines, but also in the spine, joints and skull
[^18F]2 parent (Rt = ca 12:21 min:sec), single run ([4]; individual runs / representative chromatogram): 33.3% and 36.3% and 36.6%
[^18F]2 parent (Rt = ca 12:21 min:sec), mean ± SD ([4]; n = 3): 35.4 ± 1.8%
Stability after formulation [5]: 99.7%
